Assays:
[1] = tested on: HUVEC grown in presence of bFGF; assay: bFGF-induced HUVEC proliferation (BrdU incorporation); type: cell-based; conditions: Homo sapiens, bFGF 0.3 ng ml^−1, 72 h
Description: (§1) Effect of kinase inhibitors on cell proliferation was measured using BrdU incorporation method using commercially available kits (Roche Diagnostics, Indianapolis, IN, USA). Briefly, HUVEC were seeded in a medium containing 5% FBS in type 1 Collagen-coated 96-well plates and incubated overnight at 37°C, 5% CO2. The medium was aspirated from the cells, and various concentrations of kinase inhibitors in serum-free medium were added to each well. After 30 min, VEGF (10 ng ml^−1) or bFGF (0.3 ng ml^−1) was added to the wells. Cells were incubated for an additional 72 h and BrdU (10 μM) was added during the last 18–24 h of incubation. Data were fitted with a curve described by the equation, y=Vmax × (1−(x/(K+x))), where K is equal to the IC50.

[2] = tested on: HCT116 xenograft; assay: HCT116 tumour xenograft growth inhibition; type: in vivo, nude mice; conditions: for % Inhibition of tumour growth: vs vehicle
Description: (§2) Tumours were initiated by injection of tumour cell suspension subcutaneously in 8–12-week-old nude mice, except PC3 tumours that were grown in SCID mice (Charles River Laboratories, Wilmington, MA, USA). When tumours reached a volume of 100–200 mm^3, mice were randomised into groups of eight prior to treatment with VEGFR kinase inhibitors. Animals were treated with kinase inhibitors (10, 30, or 100 mg kg^−1) or vehicle (0.5% hydroxypropyl methyl cellulose, 0.1% Tween 80 in sterile water), administered once or twice daily by oral gavage for 2–3 weeks (till the mean tumour volume reached 1000–1500 mm^3). Tumour volume was measured twice weekly by calipers, using the formula (length × width × width × 0.5), where length was the longest diameter across the tumour, and width was the corresponding perpendicular. Tumour growth inhibition was calculated by change in the slopes of tumour growth for control and treated tumours. The oral dose of GW654652 producing 50% inhibition of tumour growth (ED50, mg kg^−1) was estimated by a programme that performed a weighted nonlinear regression analysis of data using the equation: y=Vmax(1−(x/(K+x))), where K is equal to ED50. All animal studies were carried out with the appropriate institutional ethical committee approval and they met the standards of both the US federal regulations and those required by the UKCCCR guidelines ([Workman et al, 1998]).

[3] = Pharmacokinetics in mice; type: in vivo, mouse; conditions: for free Cmax: mice, based on 99% protein binding and total plasma concentration
[4] = target: T1, human VEGFR kinase 3 (Homo sapiens, UniProt P35916); assay: VEGFR3 kinase assay (HTRF); type: biochemical
T1 construct: GST-fusion protein encoding the catalytic carboxyl-terminus of human VEGFR kinase 1, 2, or 3; made in house; host or cells: baculovirus expression system
Description: (§3) Vascular endothelial growth factor receptor kinase assays were carried out in a homogenous time-resolved fluorescence (HTRF) format in 384-well microtitre plates using a purified, baculovirus-expressed GST-fusion protein encoding the catalytic carboxyl-terminus of human VEGFR kinase 1, 2, or 3. Reactions were initiated by the addition of 10 μl of activated VEGFR kinase (1 nM, 0.1 M HEPES pH 7.5, 0.1 mg ml^−1 BSA, and 0.30 mM DTT) to 10 μl of substrate (360 nM biotin-aminohexyl-EEEEYFELVAKKKK-NH2 peptide, 75 μM ATP, 10 mM MgCl2) and 1 μl of small molecule inhibitor at various concentrations. Plates were incubated at room temperature for 60 min, and the reaction was stopped by the addition of 20 μl 100 mM EDTA. Homogenous time-resolved fluorescence reagents (20 μl 15 nM streptavidin-linked allophycocyanin, 1 nM europium-labelled anti-phosphotyrosine antibody in 0.1 M HEPES, pH 7.5, 0.1 mg ml^−1 BSA) were added and plates were incubated for a minimum of 10 min. The fluorescence at 665 nm was measured with a Victor plate reader (Wallac, Shelton, CT, USA) using a time delay of 50 μs. […] Data were fitted with a curve described by: y=((Vmax × x)/(K+x)+Y2), where Vmax is the upper asymptote, Y2 is the Y intercept, and K is the IC50.

[5] = target: T2, Eph-B4 (Homo sapiens, UniProt P54760); assay: Eph-B4 kinase assay (scintillation proximity); type: biochemical
T2 construct: Each kinase assay was conducted using purified recombinant catalytic domain of the enzyme
T2 sequence (P54760 615-899 limits assumed): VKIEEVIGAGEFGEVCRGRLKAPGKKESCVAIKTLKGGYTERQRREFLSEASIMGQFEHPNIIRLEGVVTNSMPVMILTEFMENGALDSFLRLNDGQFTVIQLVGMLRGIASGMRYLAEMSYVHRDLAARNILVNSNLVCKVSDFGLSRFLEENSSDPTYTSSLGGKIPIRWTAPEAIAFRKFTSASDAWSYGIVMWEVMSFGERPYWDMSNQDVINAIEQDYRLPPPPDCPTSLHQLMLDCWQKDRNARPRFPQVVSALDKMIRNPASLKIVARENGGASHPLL
Description: (§4) Inhibition of several other kinases by small molecules was also determined. Each kinase assay was conducted using purified recombinant catalytic domain of the enzyme. The concentration of ATP and kinase-specific biotinylated peptide in each assay was below the apparent Km of the respective substrate. Inhibition of c-Fms, SRC, and Tie-2 was evaluated by an HTRF format and the inhibition of CDK2, CDK4, EGFR, ErbB2, and Eph-B4 was detected by scintillation proximity assay.

[6] = target: T3, SRC (Homo sapiens, UniProt P12931); assay: SRC kinase assay (HTRF); type: biochemical
T3 construct: Each kinase assay was conducted using purified recombinant catalytic domain of the enzyme
Description: as §4

[7] = tested on: PC3 xenograft; assay: PC3 tumour xenograft growth inhibition; type: in vivo, SCID mice; conditions: for % Inhibition of tumour growth: vs vehicle
Description: as §2

[8] = target: T4, CDK4 (Homo sapiens, UniProt P11802); assay: CDK4 kinase assay (scintillation proximity); type: biochemical
T4 construct: Each kinase assay was conducted using purified recombinant catalytic domain of the enzyme
Description: as §4

[9] = target: T5, human VEGFR kinase 1 (Homo sapiens, UniProt P17948); assay: VEGFR1 kinase assay (HTRF); type: biochemical
T5 construct: GST-fusion protein encoding the catalytic carboxyl-terminus of human VEGFR kinase 1, 2, or 3; made in house; host or cells: baculovirus expression system
T5 sequence (P17948 827-1158 limits assumed): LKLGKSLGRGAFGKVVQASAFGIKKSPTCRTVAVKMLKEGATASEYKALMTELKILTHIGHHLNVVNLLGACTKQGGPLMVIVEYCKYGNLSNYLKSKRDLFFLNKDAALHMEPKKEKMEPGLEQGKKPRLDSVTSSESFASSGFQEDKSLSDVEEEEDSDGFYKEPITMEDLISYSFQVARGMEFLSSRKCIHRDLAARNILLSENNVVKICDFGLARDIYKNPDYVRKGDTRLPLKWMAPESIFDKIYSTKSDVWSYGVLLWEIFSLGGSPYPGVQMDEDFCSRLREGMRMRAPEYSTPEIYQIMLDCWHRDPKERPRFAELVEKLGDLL
Description: as §3

[10] = tested on: HT29 xenograft; assay: HT29 tumour xenograft growth inhibition; type: in vivo, nude mice; conditions: for % Inhibition of tumour growth: vs vehicle
Description: as §2

[11] = target: T6, CDK2 (Homo sapiens, UniProt P24941); assay: CDK2 kinase assay (scintillation proximity); type: biochemical
T6 construct: Each kinase assay was conducted using purified recombinant catalytic domain of the enzyme
Description: as §4

[12] = target: T7, ErbB2 (Homo sapiens, UniProt P04626); assay: ErbB2 kinase assay (scintillation proximity); type: biochemical
T7 construct: Each kinase assay was conducted using purified recombinant catalytic domain of the enzyme
Description: as §4

[13] = Pharmacokinetics in dog; type: in vivo
[14] = tested on: HUVEC grown in presence of VEGF; assay: VEGF-induced HUVEC proliferation (BrdU incorporation); type: cell-based; conditions: Homo sapiens, VEGF 10 ng ml^−1, 72 h
Description: as §1

[15] = target: T8, EGFR (Homo sapiens, UniProt P00533); assay: EGFR kinase assay (scintillation proximity); type: biochemical
T8 construct: Each kinase assay was conducted using purified recombinant catalytic domain of the enzyme
Description: as §4

[16] = Protein binding; type: in vitro ADME; conditions: mouse, plasma; used to calculate free Cmax in mice
[17] = tested on: SW620 xenograft; assay: SW620 tumour xenograft growth inhibition; type: in vivo, nude mice; conditions: for % Inhibition of tumour growth: vs vehicle
Description: as §2

[18] = target: T9, c-Fms (Homo sapiens, UniProt P07333); assay: c-Fms kinase assay (HTRF); type: biochemical
T9 construct: Each kinase assay was conducted using purified recombinant catalytic domain of the enzyme
T9 sequence (P07333 582-910 limits assumed): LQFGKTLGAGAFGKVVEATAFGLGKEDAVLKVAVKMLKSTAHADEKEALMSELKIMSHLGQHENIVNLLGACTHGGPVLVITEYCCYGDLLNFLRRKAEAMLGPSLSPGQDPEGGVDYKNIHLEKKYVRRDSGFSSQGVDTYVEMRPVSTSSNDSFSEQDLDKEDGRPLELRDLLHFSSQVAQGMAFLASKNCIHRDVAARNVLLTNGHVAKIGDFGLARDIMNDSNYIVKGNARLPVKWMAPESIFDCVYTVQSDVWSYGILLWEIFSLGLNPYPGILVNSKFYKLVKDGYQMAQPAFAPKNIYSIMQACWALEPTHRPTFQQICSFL
Description: as §4

[19] = tested on: A375P xenograft; assay: A375P tumour xenograft growth inhibition; type: in vivo, nude mice; conditions: for % Inhibition of tumour growth: vs vehicle
Description: as §2

[20] = target: T10, human VEGFR2 kinase (Homo sapiens, UniProt P35968); assay: VEGFR2 kinase assay (HTRF); type: biochemical; conditions: Table 1
T10 construct: GST-fusion protein encoding the catalytic carboxyl-terminus of human VEGFR kinase 1, 2, or 3; made in house; host or cells: baculovirus expression system
Description: as §3

[21] = target: T11, Tie2 (Homo sapiens, UniProt Q02763); assay: Tie-2 kinase assay (HTRF); type: biochemical
T11 construct: Each kinase assay was conducted using purified recombinant catalytic domain of the enzyme
Description: as §4

[22] = tested on: HN5 xenograft; assay: HN5 tumour xenograft growth inhibition; type: in vivo, nude mice; conditions: for % Inhibition of tumour growth: vs vehicle
Description: as §2

[23] = ratio of IC50 of the kinase to IC50 vs VEGFR-2

T7 sequence (P04626 720-987 limits assumed, species assumed): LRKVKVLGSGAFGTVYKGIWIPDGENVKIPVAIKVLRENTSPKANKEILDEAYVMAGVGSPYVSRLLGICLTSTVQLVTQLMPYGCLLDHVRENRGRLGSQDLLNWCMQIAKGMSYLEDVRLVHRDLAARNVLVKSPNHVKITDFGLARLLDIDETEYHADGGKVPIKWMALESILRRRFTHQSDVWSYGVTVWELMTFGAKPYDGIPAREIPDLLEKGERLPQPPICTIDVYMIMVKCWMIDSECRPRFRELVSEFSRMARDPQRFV
T8 sequence (P00533 712-979 limits assumed, species assumed): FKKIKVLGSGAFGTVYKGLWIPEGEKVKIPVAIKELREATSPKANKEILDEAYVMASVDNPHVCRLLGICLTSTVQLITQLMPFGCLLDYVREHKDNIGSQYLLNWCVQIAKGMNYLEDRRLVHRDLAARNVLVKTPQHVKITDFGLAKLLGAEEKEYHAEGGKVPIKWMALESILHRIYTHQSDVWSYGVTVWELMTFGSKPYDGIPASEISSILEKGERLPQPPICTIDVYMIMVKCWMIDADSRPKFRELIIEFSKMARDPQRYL
T11 sequence (Q02763 824-1096 limits assumed, species assumed): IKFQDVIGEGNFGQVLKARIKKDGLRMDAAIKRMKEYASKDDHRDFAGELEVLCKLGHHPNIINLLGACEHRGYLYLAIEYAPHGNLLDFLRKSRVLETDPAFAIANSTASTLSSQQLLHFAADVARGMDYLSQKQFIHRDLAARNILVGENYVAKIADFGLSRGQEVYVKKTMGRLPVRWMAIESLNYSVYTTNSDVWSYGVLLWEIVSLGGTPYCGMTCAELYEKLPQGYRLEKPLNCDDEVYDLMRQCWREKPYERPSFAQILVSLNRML
T4 sequence (P11802 6-295 limits assumed, species assumed): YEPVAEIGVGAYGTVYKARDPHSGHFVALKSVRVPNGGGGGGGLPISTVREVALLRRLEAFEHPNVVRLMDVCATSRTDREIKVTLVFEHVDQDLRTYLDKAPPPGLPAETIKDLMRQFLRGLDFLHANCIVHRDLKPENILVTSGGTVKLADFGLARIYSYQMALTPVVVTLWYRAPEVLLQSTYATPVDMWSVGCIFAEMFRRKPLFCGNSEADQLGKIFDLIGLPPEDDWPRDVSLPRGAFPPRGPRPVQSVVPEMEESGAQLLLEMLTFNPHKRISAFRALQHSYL
T4 sequence (P24385 whole entry partner, species assumed, the tested form may be a part): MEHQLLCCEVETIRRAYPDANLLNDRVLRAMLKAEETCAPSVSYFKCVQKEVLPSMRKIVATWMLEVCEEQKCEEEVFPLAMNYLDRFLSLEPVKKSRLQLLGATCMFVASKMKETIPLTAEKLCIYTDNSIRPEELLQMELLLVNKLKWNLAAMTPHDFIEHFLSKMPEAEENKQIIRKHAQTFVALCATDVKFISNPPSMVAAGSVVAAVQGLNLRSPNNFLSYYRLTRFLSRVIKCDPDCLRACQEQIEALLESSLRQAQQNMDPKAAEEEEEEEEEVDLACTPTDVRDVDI
T3 sequence (P12931 270-523 limits assumed, species assumed): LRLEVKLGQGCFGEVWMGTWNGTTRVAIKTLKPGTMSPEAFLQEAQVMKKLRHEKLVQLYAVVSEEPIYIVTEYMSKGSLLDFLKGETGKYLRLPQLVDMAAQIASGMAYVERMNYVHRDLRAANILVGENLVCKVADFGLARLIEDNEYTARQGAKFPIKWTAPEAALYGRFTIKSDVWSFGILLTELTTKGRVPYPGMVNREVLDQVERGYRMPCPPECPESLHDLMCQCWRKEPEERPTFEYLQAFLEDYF
T1 sequence (P35916 845-1173 limits assumed): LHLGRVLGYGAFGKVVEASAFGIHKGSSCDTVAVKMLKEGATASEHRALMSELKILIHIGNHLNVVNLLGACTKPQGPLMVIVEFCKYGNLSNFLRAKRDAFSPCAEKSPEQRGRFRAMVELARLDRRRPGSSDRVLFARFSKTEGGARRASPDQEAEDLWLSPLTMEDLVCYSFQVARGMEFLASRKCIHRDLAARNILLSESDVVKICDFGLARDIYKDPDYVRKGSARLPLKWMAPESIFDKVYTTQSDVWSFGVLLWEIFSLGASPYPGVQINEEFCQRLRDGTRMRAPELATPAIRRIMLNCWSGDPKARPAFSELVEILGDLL
T10 sequence (P35968 834-1162 limits assumed): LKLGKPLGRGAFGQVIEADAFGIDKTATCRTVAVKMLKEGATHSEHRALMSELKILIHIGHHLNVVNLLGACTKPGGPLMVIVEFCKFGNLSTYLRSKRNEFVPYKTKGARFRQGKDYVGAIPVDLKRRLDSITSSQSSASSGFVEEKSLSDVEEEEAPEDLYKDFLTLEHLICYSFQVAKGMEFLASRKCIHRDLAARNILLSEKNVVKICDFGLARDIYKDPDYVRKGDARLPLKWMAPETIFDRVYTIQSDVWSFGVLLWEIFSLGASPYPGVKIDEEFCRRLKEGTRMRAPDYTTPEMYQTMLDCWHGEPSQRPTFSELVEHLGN

CCS(=O)(=O)c1ccc(OC)c(Nc2nccc(N(C)c3ccc4c(C)n[nH]c4c3)n2)c1 [GW654652, N^2-[5-(ethylsulphonyl)-2-methoxyphenyl]-N^4-methyl-N^4-(3-methyl-1H-indazol-6-yl)pyrimidine-2,4-diamine]
IC50 [1]: 1980 nM
% Inhibition of tumour growth ([2]; HCT116, 10 mg kg^−1 oral once daily): 18%
% Inhibition of tumour growth ([2]; HCT116, 30 mg kg^−1 oral once daily): 59%
% Inhibition of tumour growth ([2]; HCT116, 100 mg kg^−1 oral once daily): 71%
ED50 ([2]; HCT116, oral dose producing 50% inhibition of tumour growth): 21 ± 8 mg/kg/day
free Cmax ([3]; oral 10 mg kg^−1): 60 nM
free Cmax ([3]; oral 30 mg kg^−1): 230 nM
free Cmax ([3]; oral 100 mg kg^−1): 1380 nM
pharmacokinetic profile ([3]; mouse): good pharmacokinetic profile
IC50 ([4]; mean±s.e.): 2.5 ± 0.5 nM
Fold selectivity vs VEGFR-2, VEGFR-3 [4, 23]: 1.1
IC50 ([5]; mean±s.e.): 460 ± 30 nM
Fold selectivity vs VEGFR-2, Eph-B4 [5, 23]: 204
IC50 ([6]; mean±s.e.): 350 ± 240 nM
Fold selectivity vs VEGFR-2, SRC [6, 23]: 156
% Inhibition of tumour growth ([7]; PC3, 30 mg kg^−1 oral once daily): 21%
% Inhibition of tumour growth ([7]; PC3, 100 mg kg^−1 oral once daily): 48%
ED50 ([7]; PC3, oral dose producing 50% inhibition of tumour growth): 108 ± 50 mg/kg/day
IC50 [8]: > 20000 nM
Fold selectivity vs VEGFR-2, CDK4 [8, 23]: >8800
IC50 ([9]; mean±s.e.): 12 ± 2.6 nM
Fold selectivity vs VEGFR-2, VEGFR-1 [9, 23]: 5.3
% Inhibition of tumour growth ([10]; HT29, 10 mg kg^−1 oral once daily): 5%
% Inhibition of tumour growth ([10]; HT29, 30 mg kg^−1 oral once daily): 69%
% Inhibition of tumour growth ([10]; HT29, 100 mg kg^−1 oral once daily): 98%
ED50 ([10]; HT29, oral dose producing 50% inhibition of tumour growth): 20 ± 8 mg/kg/day
IC50 [11]: > 20000 nM
Fold selectivity vs VEGFR-2, CDK2 [11, 23]: >8800
IC50 ([12]; mean±s.e.): 11500 ± 2740 nM
Fold selectivity vs VEGFR-2, ErbB2 [12, 23]: 5125
pharmacokinetic profile [13]: good pharmacokinetic profile
IC50 [14]: 110 nM
IC50 ([15]; mean±s.e.): 1360 ± 420 nM
Fold selectivity vs VEGFR-2, EGFR [15, 23]: 605
fraction unbound [16]: 0.01
% Inhibition of tumour growth ([17]; SW620, 10 mg kg^−1 oral once daily): 12%
% Inhibition of tumour growth ([17]; SW620, 30 mg kg^−1 oral once daily): 44%
% Inhibition of tumour growth ([17]; SW620, 100 mg kg^−1 oral once daily): 74%
ED50 ([17]; SW620, oral dose producing 50% inhibition of tumour growth): 46 ± 11 mg/kg/day
IC50 ([18]; mean±s.e.): 530 ± 330 nM
Fold selectivity vs VEGFR-2, c-Fms [18, 23]: 237
% Inhibition of tumour growth ([19]; 30 mg kg^−1 oral once daily): 14%
% Inhibition of tumour growth ([19]; 100 mg kg^−1 oral once daily): 49%
ED50 ([19]; oral dose producing 50% inhibition of tumour growth): 114 ± 54 mg/kg/day
IC50 [20]: 2.3 nM
IC50 ([21]; mean±s.e.): 320 ± 40 nM
Fold selectivity vs VEGFR-2, Tie2 [21, 23]: 144
% Inhibition of tumour growth ([22]; HN5, 10 mg kg^−1 oral once daily): 24%
% Inhibition of tumour growth ([22]; HN5, 30 mg kg^−1 oral once daily): 46%
% Inhibition of tumour growth ([22]; HN5, 100 mg kg^−1 oral once daily): 83%
ED50 ([22]; HN5, oral dose producing 50% inhibition of tumour growth): 28 ± 10 mg/kg/day
